The record followed here is PubChem BioAssay (NCI).

What all share (test): NCI tumour cell line growth inhibition, 48 h
The test system of test [1] is EKVX NSCLC.
For test [2], the system named is HOP-92 NSCLC.
For test [3], the system named is HS 578T breast.
The test system of test [4] is MCF7 breast.
Test [5] deals with MDA-MB-435.
In test [6] the test system is NCI-H23 lung.
In test [7] the test system is OVCAR-8 ovarian.
The test system of test [8] is SF-295 CNS.
Test [9] has as its system SK-MEL-28 melanoma.
Test [10] deals with SK-OV-3 ovarian.

Each structure is given as a SMILES string. “And” between values parts separate entries of the source, which are not always exact repeats. Equal entries are not always repeated.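 Compound exposure: 48 hours, 5 concentrations, 96-well plates. GI50: concentration for 50% inhibition of growth. TGI is the concentration that stops growth completely.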

As for `Oc1cc(Br)cc2cc(Cl)cnc12`, the TGI in test [1] is 45.2 µM; in test [2], over 100 µM; in [3], 12.1 µM; in [4], 23.8 µM; in test [5], over 67.7 µM; in test [6] it was 48.2 µM. Also, the TGI is over 40.6 µM in test [7], over 48 µM in test [8], over 100 µM in test [9] and over 68.9 µM in test [10].

Take `O=c1ccc2nc(-c3ccccn3)nn(-c3ccccc3)c-2c1`: the GI50 in test [1] is 6.25 µM; in test [2], 1.15 µM; in test [3], 2.85 µM; in test [4], 0.783 µM; in test [5], 2.29 µM; in test [6], 2.19 µM. The GI50 in test [7] was 3.1 µM; in test [8], 13.9 µM; in test [9], 1.69 µM; in test [10], 11.1 µM. Besides, the TGI stood at 20 µM in test [1]; 2.42 µM in [2]; 35.9 µM in [3]; 4.71 µM in [4]; 5.75 µM in [5]; 4.84 µM in test [6]. In addition, the TGI in test [7] is over 100 µM; in test [8] it was 27.4 µM; in [9], 3.24 µM; in test [10] it was 24.1 µM.

For `O=c1ccc2ccc(O)cc2o1`, the TGI in [1], in [2], in test [3], in [4], in test [5] and in [6] was over 100 µM throughout. Besides, the TGI in [7], in [8], in test [9] and in test [10] was over 100 µM throughout.

In the case of `C=C(C(=O)O[C@H]1C(=O)C2=C(C)CCC3C(=C)C(=O)O[C@@H]3C2[C@]1(C)O)C1CC[C@]2(C)CCCC(=C)[C@H]2C1` (stereo partly specified), the TGI in test [1] is 17.8 µM and 22.7 µM; in [2] it was 14.2 µM and 11.3 µM; in test [3] it was 15.8 µM; in [4] it was 8.81 µM and 10.8 µM; in test [5], 10.1 µM and 8.5 µM; in test [6], 16.1 µM and 16.8 µM. The TGI in test [7] was 12.3 µM and 13.1 µM; in [8], 9.37 µM and 29.5 µM; in test [9], 12.5 µM; in test [10], 30.5 µM. The GI50 was 7.27 µM in test [2], 1.75 µM in test [4], 5.67 µM in test [7] and 0.0252 µM in test [8].

With `C=CCC(C(=O)Nc1cccc2[nH]cnc12)C(=O)OCC` (stereo unspecified), the TGI in test [1], in [2], in test [3], in test [4], in test [5] and in [7] was over 100 µM each time. The TGI in [8], in [9] and in test [10] was over 100 µM each time.

On to `CC1=C(C)C(=O)C(C2=CC(=O)C=CC2=O)=C(C2=CC(=O)C=CC2=O)C1=O`, for which the TGI was over 100 µM in test [1]; over 78.9 µM in test [2]; over 100 µM in test [3]; over 81.4 µM in test [4]; over 83.7 µM in test [5]; over 100 µM in [6]. Also, the TGI is over 87.7 µM in [7], over 100 µM in test [8], over 100 µM in [9] and over 100 µM in test [10].

For the compound `CC1(C)CCc2c(c(N=Nc3ccc(F)cc3)c3ccccc3c2O)O1`, the TGI was 97 µM in [1]; over 100 µM in test [2]; over 100 µM in test [3]; over 100 µM in test [4]; 32 µM in test [5]; over 100 µM in test [6]. For the same compound, the TGI in [7] was over 100 µM; in [8], 49.8 µM; in [9], over 100 µM; in test [10], over 100 µM.

For `CC(=O)OC1COC(Nc2nc(N)n(C)c(=O)c2N=O)C(OC(C)=O)C1OC(C)=O` (stereo unspecified), the TGI in test [1], in test [2], in test [3], in test [4], in test [5] and in test [6] was over 10 µM each time. Moreover, the TGI in test [7], in [8], in [9] and in test [10] was over 10 µM in each case.

Take `Cc1sc2nc3n(c(=O)c2c1C)N=CN(c1ccc(F)cc1)C3`: the TGI in test [1] was over 100 µM; in test [2], 83.9 µM; in [3] it was 79.2 µM; in test [4], over 100 µM; in [5], over 100 µM; in test [6], over 100 µM. The TGI in test [7], in test [8], in [9] and in test [10] was over 100 µM in each case.

With `O=[N+]([O-])C(Cl)=C/C(=C(\Cl)SCc1ccccc1)[N+](=O)[O-]`, the TGI is 35.2 µM in [1]; 36.1 µM in test [2]; over 100 µM in test [3]; over 100 µM in test [4]; 36.3 µM in test [5]; 69.6 µM in test [6]. Also, the TGI is 59.9 µM in test [7], 99.6 µM in test [8], 59.7 µM in test [9] and over 100 µM in test [10].

`CCOC(=O)C(NC(=O)OC(C)(C)C)C(=O)OCC`: the TGI in test [1], in test [2], in test [3], in test [4], in test [5] and in test [6] was over 100 µM in each case. Also, the TGI in test [7], in test [9] and in test [10] was over 100 µM each time.

As for `CN1CCN(C2=CC(=O)c3c(O)ccc(O)c3C2=O)CC1`, the TGI in [1] is 3.26 µM; in test [2] it was 3.29 µM; in [3], 4.1 µM; in test [4], 1.18 µM; in test [5] it was 0.332 µM; in test [6], 2.8 µM. Besides, the TGI in test [8] was 3.09 µM; in [9], 3 µM; in test [10], over 10 µM.
